Results reported in patent US8217085B2 (priority 2009, dated 2012).
Where two headings read alike, the source gives them in different places.

Key:
[1] = test system: ATCC strain 43300 Staphylococcus aureus; details: methicillin alone, 12 μg/ml, 30 μg/ml and 60 μg/ml
Experimental: Additional antibiotic was added every 24 hours. The growth periods tested were 24 (FIG. 5), 48, 72, 96 and 120 hours.
USP<51> Antimicrobial Effectiveness protocol was used as the template experimental paradigm. […] All concentrations were plated out to the 10^−7 dilutions to ascertain cfu/ml. […] Additional antibiotic was added at the initial concentration every 24 hours.
ATCC strain 43300 Staphylococcus aureus was streaked out for isolations. An isolated colony was chosen, streaked again and incubated. Isolate was chosen and then diluted to a McFarland standard of one. The estimated value was then taken to inoculate tubes containing growth media and 12, 30 or 60 μg/ml methicillin with approximately 10^5 cfu/ml. These tubes were incubated and plated for counting cfu.
Material was calculated on a 10 ml volume. Sterile methicillin was added to each experimental condition to a final concentration of 12, 30 or 60 μg/ml antibiotic. Lactose Broth positive controls both with and without the 12 μg/ml, 30 μg/ml, 60 μg/ml antibiotic were inoculated with MRSA. […] Tubes were set up in singlet, but plated in triplicate, as described below.
All tubes were then inoculated with a dilution of the selected ATCC strain 43300 Staphylococcus aureus clone giving a final level of colony forming units of 1.49×10^5/ml (log=5.17). The tubes were incubated at 25° C. and mixed periodically. Antibiotic was re-inoculated every 24 hours at the initial concentration to maintain pressure on the organism. Plating was done at 24, 48, 72, and 120 hours. Each condition was plated by diluting 1 ml of growth material into 9 ml of MLB diluent broth. […] This mixture was serial diluted down to 10^−7 with 1 ml placed in triplicate in a sterile petri dish at each dilution point. 20 mls of TSA was added to each dilution, swirled and allowed to solidify. All dilutions were placed in a 35° C. incubator for 24 to 72 hours. Bacterial colonies on each plate were counted and the average taken then changed into log format.

[2] = test system: drug sensitive Staphylococcus aureus; details: Etest system; cited from earlier work
[3] = test system: ATCC strain 43300 Staphylococcus aureus; details: oxacillin alone, 12 μg/ml, 30 μg/ml and 60 μg/ml
Experimental: Additional antibiotic was added every 24 hours.
USP<51> Antimicrobial Effectiveness protocol was used as the template experimental paradigm. […] All concentrations were plated out to the 10^−7 dilutionsto ascertain cfu/ml. […] Additional antibiotic was added at the initial concentration every 24 hours.
ATCC strain 43300 Staphylococcus aureus was streaked out for isolations. An isolated colony was chosen, streaked again and incubated. Isolate was chosen and then diluted to a McFarland standard of one. The estimated value was then taken to inoculate tubes containing growth media and 12, 30 or 60 μg/ml oxacillin with approximately 10^5 cfu/ml. These tubes were incubated and plated for counting cfu.
Material was calculated on a 10 ml volume. Sterile oxacillin was added to each experimental condition to a final concentration of 12, 30 or 60 μg/ml antibiotic.
All tubes were then inoculated with a dilution of the selected ATCC strain 43300 Staphylococcus aureus clone giving a final level of colony forming units of 3.3×10^5/ml (log=5.52). The tubes were incubated at 25° C. and mixed periodically. Antibiotic was re-inoculated every 24 hours at the initial concentration to maintain pressure on the organism. Plating was done at 24, 48, 72, and 120 hours. Each condition was plated by diluting 1 ml of growth material into 9 ml of MLB diluent broth. […] This mixture was serial diluted down to 10^−7 with 1 ml placed in triplicate in a sterile petri dish at each dilution point. 20 mls of TSA was added to each dilution, swirled and allowed to solidify. All dilutions were placed in a 35° C. incubator for 24 to 72 hours. Bacterial colonies on each plate were counted and the average taken then changed into log format. Any cfu/ml observed greater than 3.3×10^5 (log=5.5) were recorded as >3.3×10^5.

| Compound | change in colony forming units from initial inoculum [1] | MIC [2] [µg/mL] | change in colony forming units from initial inoculum [3] |
| --- | --- | --- | --- |
| COc1cccc(OC)c1C(=O)N[C@@H]1C(=O)N2[C@@H]1SC(C)(C)[C@@H]2C(=O)O [methicillin, reference compound] | no significant decrease in colony forming units |  |  |
| Cc1onc(-c2ccccc2)c1C(=O)N[C@@H]1C(=O)N2[C@@H]1SC(C)(C)[C@@H]2C(=O)O [oxacillin, reference compound] |  | ≤ 2 | no significant decrease in colony forming units |
